# Test results as given in PMC3920255 (Toxins, 2013).
# Numbered stars: 1 amine (or outer) side, 2 acyl side, 3 side chain; on linkers, the order of the positions; unused ones are H or OH. Bridge positions count the residues as written; N and C are the ends. Square brackets hold non-standard residues; d marks the D form. Peptide text beside a SMILES is read from it. Adda = CO[C@@H](Cc1ccccc1)[C@@H](C)/C=C(C)/C=C/[C@H](N[*:1])[C@H](C)C(=O)[*:2]; dAsp(3S-Me) = C[C@H](C(=O)[*:3])[C@@H](N[*:1])C(=O)[*:2]; d(γGlu) = O=C(O)[C@@H](CCC(=O)[*:2])N[*:1]; NMeDha = C=C(NC)C(=O)O; Dha = C=C(N)C(=O)O
# Tested on: primary rat hepatocytes
# Details: cited from earlier work
row,SMILES,"IC50 of MC-LR to primary rat hepatocytes, earlier study [µg/mL]"
1,"C=C1C(=O)N[C@H](C)C(=O)N[C@@H](CC(C)C)C(=O)N[C@@H](C(=O)O)[C@H](C)C(=O)N[C@@H](CCCNC(=N)N)C(=O)N[C@@H](/C=C/C(C)=C/[C@H](C)[C@H](Cc2ccccc2)OC)[C@H](C)C(=O)N[C@@H](C(=O)O)CCC(=O)N1C [No.1, MC-LR, reference compound] (R[Adda][d(γGlu)][NMeDha][dA]L[dAsp(3S-Me)]-OH; lactam N-7)",0.048

# Tested on: primary cultured rat hepatocytes
# Details: not given
row,SMILES,IC50 (concentration showing 50% cell viability) [µg/mL]
1,"C=C1C(=O)N[C@H](C)C(=O)N[C@@H](CC(C)C)C(=O)N[C@@H](C(=O)O)[C@H](C)C(=O)N[C@@H](CCCNC(=N)N)C(=O)N[C@@H](/C=C/C(C)=C/[C@H](C)[C@H](Cc2ccccc2)OC)[C@H](C)C(=O)N[C@@H](C(=O)O)CCC(=O)N1C [No.1, MC-LR, reference compound] (R[Adda][d(γGlu)][NMeDha][dA]L[dAsp(3S-Me)]-OH; lactam N-7)",0.800
2,"C=C1NC(=O)CC[C@H](C(=O)O)NC(=O)[C@@H](C)[C@H](/C=C/C(C)=C/[C@H](C)[C@H](Cc2ccccc2)OC)NC(=O)[C@H](CCCNC(=N)N)NC(=O)[C@@H](C)[C@H](C(=O)O)NC(=O)[C@H](CC(C)C)NC(=O)[C@@H](C)NC1=O [No.2, [Dha^7] MC-LR] (R[Adda][d(γGlu)][Dha][dA]L[dAsp(3S-Me)]-OH; lactam N-7)",0.217
3,"C=C1C(=O)N[C@H](C)C(=O)N[C@@H](CC(C)C)C(=O)N[C@@H](C(=O)O)CC(=O)N[C@@H](CCCNC(=N)N)C(=O)N[C@@H](/C=C/C(C)=C/[C@H](C)[C@H](Cc2ccccc2)OC)[C@H](C)C(=O)N[C@@H](C(=O)O)CCC(=O)N1C [No.3, [D-Asp^3] MC-LR]",0.217
4,"C=C1NC(=O)CC[C@H](C(=O)O)NC(=O)[C@@H](C)[C@H](/C=C/C(C)=C/[C@H](C)[C@H](Cc2ccccc2)OC)NC(=O)[C@H](CCCNC(=N)N)NC(=O)C[C@H](C(=O)O)NC(=O)[C@H](CC(C)C)NC(=O)[C@@H](C)NC1=O [No.4, [D-Asp^3, Dha^7] MC-LR]",0.217
5,"C/C=C1/NC(=O)CC[C@H](C(=O)O)NC(=O)[C@@H](C)[C@H](/C=C/C(C)=C/[C@H](C)[C@H](Cc2ccccc2)OC)NC(=O)[C@H](CCCNC(=N)N)NC(=O)C[C@H](C(=O)O)NC(=O)[C@H](CC(C)C)NC(=O)[C@@H](C)NC1=O [No.5, [D-Asp^3, E-Dhb^7] MC-LR]",0.133
6,"C/C=C1\NC(=O)CC[C@H](C(=O)O)NC(=O)[C@@H](C)[C@H](/C=C/C(C)=C/[C@H](C)[C@H](Cc2ccccc2)OC)NC(=O)[C@H](CCCNC(=N)N)NC(=O)C[C@H](C(=O)O)NC(=O)[C@H](CC(C)C)NC(=O)[C@@H](C)NC1=O [No.6, [D-Asp^3, Z-Dhb^7] MC-LR]",0.053
7,"C=C1C(=O)N[C@H](C)C(=O)N[C@@H](Cc2ccc(O)cc2)C(=O)N[C@@H](C(=O)O)[C@H](C)C(=O)N[C@@H](CCCNC(=N)N)C(=O)N[C@@H](/C=C/C(C)=C/[C@H](C)[C@H](Cc2ccccc2)OC)[C@H](C)C(=O)N[C@@H](C(=O)O)CCC(=O)N1C [No.7, MC-YR] (R[Adda][d(γGlu)][NMeDha][dA]Y[dAsp(3S-Me)]-OH; lactam N-7)",1.48
8,"C=C1NC(=O)CC[C@H](C(=O)O)NC(=O)[C@@H](C)[C@H](/C=C/C(C)=C/[C@H](C)[C@H](Cc2ccccc2)OC)NC(=O)[C@H](CCCNC(=N)N)NC(=O)[C@@H](C)[C@H](C(=O)O)NC(=O)[C@H](Cc2ccc(O)cc2)NC(=O)[C@@H](C)NC1=O [No.8, [Dha^7] MC-YR] (R[Adda][d(γGlu)][Dha][dA]Y[dAsp(3S-Me)]-OH; lactam N-7)",0.418
9,"C=C1C(=O)N[C@H](C)C(=O)N[C@@H](CCCNC(=N)N)C(=O)N[C@@H](C(=O)O)[C@H](C)C(=O)N[C@@H](CCCNC(=N)N)C(=O)N[C@@H](/C=C/C(C)=C/[C@H](C)[C@H](Cc2ccccc2)OC)[C@H](C)C(=O)N[C@@H](C(=O)O)CCC(=O)N1C [No.12, MC-RR] (R[Adda][d(γGlu)][NMeDha][dA]R[dAsp(3S-Me)]-OH; lactam N-7)",>10
10,"C=C1NC(=O)CC[C@H](C(=O)O)NC(=O)[C@@H](C)[C@H](/C=C/C(C)=C/[C@H](C)[C@H](Cc2ccccc2)OC)NC(=O)[C@H](CCCNC(=N)N)NC(=O)[C@@H](C)[C@H](C(=O)O)NC(=O)[C@H](CCCNC(=N)N)NC(=O)[C@@H](C)NC1=O [No.14, [Dha^7] MC-RR] (R[Adda][d(γGlu)][Dha][dA]R[dAsp(3S-Me)]-OH; lactam N-7)",5.33
11,"C=C1NC(=O)CC[C@H](C(=O)O)NC(=O)[C@@H](C)[C@H](/C=C/C(C)=C/[C@H](C)[C@H](Cc2ccccc2)OC)NC(=O)[C@H](CCCNC(=N)N)NC(=O)C[C@H](C(=O)O)NC(=O)[C@H](CCCNC(=N)N)NC(=O)[C@@H](C)NC1=O [No.15, [D-Asp^3, Dha^7] MC-RR]",4.11

# Same assay, conditions: 72 h
row,SMILES,IC50 (concentration showing 50% cell viability) [µg/mL]
1,"C=C1C(=O)N[C@H](C)C(=O)N[C@@H](CCc2ccc(O)cc2)C(=O)N[C@@H](C(=O)O)CC(=O)N[C@@H](CCCNC(=N)N)C(=O)N[C@@H](/C=C/C(C)=C/[C@H](C)[C@H](Cc2ccccc2)OC)[C@H](C)C(=O)N[C@@H](C(=O)O)CCC(=O)N1C [No.9, [D-Asp^3] MC-HtyR]",0.347
2,"C/C=C1/NC(=O)CC[C@H](C(=O)O)NC(=O)[C@@H](C)[C@H](/C=C/C(C)=C/[C@H](C)[C@H](Cc2ccccc2)OC)NC(=O)[C@H](CCCNC(=N)N)NC(=O)C[C@H](C(=O)O)NC(=O)[C@H](CCc2ccc(O)cc2)NC(=O)[C@@H](C)NC1=O [No.10, [D-Asp^3, E-Dhb^7] MC-HtyR]",0.327
3,"C/C=C1\NC(=O)CC[C@H](C(=O)O)NC(=O)[C@@H](C)[C@H](/C=C/C(C)=C/[C@H](C)[C@H](Cc2ccccc2)OC)NC(=O)[C@H](CCCNC(=N)N)NC(=O)C[C@H](C(=O)O)NC(=O)[C@H](CCc2ccc(O)cc2)NC(=O)[C@@H](C)NC1=O [No.11, [D-Asp^3, Z-Dhb^7] MC-HtyR]",0.120
